From publication PMC10470491, “Modulation of the functional interfaces between retroviral intasomes and the human nucleosome” (mBio, 2023)
“Also recorded” adds a separate entry of the source. *1 amine or outer side, *2 acyl side, *3 side chain or, on linkers, in order; H or OH if unused. Where a SMILES comes first, the peptide text is derived from it. Bridges are numbered along the chain shown (N, C = ends). Roman numbers before positions name the chains, in order. [ ]: non-standard residue; d: D form. Actinocin(9to1) = Cc1c2oc3c(C)ccc(C(=O)[*:1])c3nc-2c(C(=O)[*:2])c(N)c1=O; NMeV = CN[C@H](C(=O)O)C(C)C; Sar = CNCC(=O)O

Legend:
mononucleosome (MN) = experiment: histone eviction assay (EMSA / SDS-PAGE); assay type: biochemical, human; details: 10 µM or increasing concentrations
[1] = system: PFV intasome/nucleosome complex; experiment: AlphaLISA PFV intasome/nucleosome interaction assay; assay type: binding, prototype foamy virus (PFV); human mononucleosome; details: for IC50: intasome/nucleosome AS assay, Fig. 3E; for selection as intasome/nucleosome modulator in the OncoSET screen: 25 µM
Experimental: AlphaLISA is a technology particularly suitable for bimolecular inhibitor screening assays using protein-protein interactions with purified recombinant proteins. The AlphaLISA assay development was performed in 96-well 12 area Alphaplate (reference 6052340, PerkinElmer, Waltham, MA, USA) with a final reaction volume of 40 µL. Cross-titration experiments of biotinylated MN (0–50 nM) against DIG-intasome (0–100 nM) were carried out to establish optimal assay concentrations for the binding assay. Ten microliters of each protein were diluted in the binding buffer 50 mM BisTris-propane pH 7, 100 mM NaCl, 0.1% (v/v) Tween-20, 0.1% (w/v) BSA, and 1 mM dithiothreitol. The plate was incubated at RT for 2 h in rotation. Ten microliters of anti-DIG acceptor beads (PerkinElmer, reference AL113) were then added, and after 1 h of incubation at RT with rotation, 10 µL of streptavidin […] (Perkin Elmer, reference 6760002) was mixed to the wells. This established a final concentration of 20 µg/mL for each bead. The plate was then incubated for 1 h at RT in the dark before the AlphaLISA signal was detected using an EnSpire Multimode Plate Reader (PerkinElmer). Negative control with binding buffer or only with one of the complexes was used to control the assay quality. Data were analyzed with GraphPad Prism 5.01 software. To evaluate tolerance for DMSO, the assay was performed as described above with an addition of 0.15–20% (v/v) of DMSO during the binding step. For the competition experiment, increasing concentrations of untagged intasome were titrated out in the 1-nM DIG-intasome/biotinylated nucleosome interaction assay.
For the AlphaLISA screening assay with the NIH OncoSET library, the binding conditions were optimized for use in 384-well plate (Optiplate, reference 6007290, PerkinElmer) with the same concentrations for complexes and beads in a final reaction volume of 20.5 µL (2.5% DMSO final concentration). The screening was first carried out with 25 µM of each compound pre-incubated for 1 h with 1 nM intasome/nucleosome complexes. Compounds were selected as inducing at least 50% decrease of the AlphaLISA signal control condition, and their inhibitory effect was further tested using dose-response curves. For compounds validation, counter select assay was performed using a short DNA fragment carrying a biotin and a DIG tag on each side. The AlphaLISA signal was monitoring using increasing concentrations of the double-tagged DNA, and the selected compounds were tested in optimized conditions at 10 µM. Any compound that causes decreased signal means that it interferes with AlphaLISA readout, and therefore, it is not relevant to this assay.

PFV intasome = PFV intasome (Human spumaretrovirus, UniProt P14350); experiment: biochemical; assay type: biochemical, prototype foamy virus (PFV); set-up: Briefly, PFV IN and its cognate vDNA were mixed, and assembled intasomes were purified by size exclusion chromatography; octamers produced in E. coli; details: 30 nM FITC PFV intasome, MN, drugs 0–25 µM
Experimental: Integration assays using purified assembled intasomes were performed as followed: either 100 ng of naked DNA or 100 ng of DNA assembled on 100 ng of histone octamers (24 nM final concentration) was incubated with 30 nM final concentration of purified intasome in 100 mM NaCl, 20 mM BTP pH 7, 12.5 mM MgSO4 (for PFV intasome), or in 20 mM HEPES pH 7, 7.5% DMSO, 8% PEG, 10 mM MgCl2, 20 µM ZnCl2, 100 mM NaCl, 5 mM DTT final concentration (for HIV-1 intasome) in a final volume of 40 µL. The mix was then incubated at 37°C for 15 min and 1 h, respectively. Then, reaction was stopped by the addition of 5.5 µL of a mix containing 5% SDS and 0.25 M EDTA and deproteinized with proteinase K (Promega) for 1 h at 37°C. Nucleic acids were then precipitated with 150 µL of ethanol overnight at −20°C. Samples were then spun at top speed for 1 h at 4°C, and the pellets were dried and then resuspended with DNA loading buffer. Integration products were separated on an 8% native polyacrylamide gel.

[2] = system: HIV-1 intasome (vDNA•IN•LEDGF/p75); experiment: in vitro HIV-1 concerted integration onto mononucleosome; assay type: biochemical; details: MN
[3] = OncoSET screen, 25 µM drug, 1 nM of each partner

Compound	histone eviction / MN dissociation (mononucleosome (MN))	decrease in the AS signal [1, 3]	inhibition of PFV integration into MNs (PFV intasome)	further results
COc1cccc2c1C(=O)c1c(O)c3c(c(O)c1C2=O)C[C@@](O)(C(C)=O)C[C@@H]3O[C@H]1C[C@H](N)[C@H](O)[C@H](C)O1 [Daunorubicin, daunorubicin]	strong displacement of histones from the MN	at least 50%	able to inhibit PFV integration into MNs	IC50 ([1]; increasing drug concentrations): 3240 ± 18 nM; effect on the intasome/nucleosome AS signal ([1]; retest at 10 µM, MN): strong inhibitory effect
COc1cccc2c1C(=O)c1c(O)c3c(c(O)c1C2=O)C[C@@](O)(C(=O)CO)C[C@@H]3O [Doxorubicinone, doxorubicinone]	could not dissociate the MN	–	inefficient in inhibiting the in vitro integration	inhibition of in vitro HIV-1 integration [2]: inefficient
CC(=O)[C@]1(O)Cc2c(O)c3c(c(O)c2[C@@H](O[C@H]2C[C@H](N)[C@H](O)[C@H](C)O2)C1)C(=O)c1ccccc1C3=O [Idarubicin, idarubicin]	strong displacement of histones from the MN	at least 50%	able to inhibit PFV integration into MNs	IC50 ([1]; increasing drug concentrations): 450 ± 22 nM; effect on the intasome/nucleosome AS signal ([1]; retest at 10 µM, MN): strong inhibitory effect
C=CC(=O)Nc1cc(Nc2nccc(-c3cn(C)c4ccccc34)n2)c(OC)cc1N(C)CCN(C)C [Osimertinib, osimertinib]	–	at least 50%	–	inhibition of intasome/nucleosome association in AS ([1]; increasing drug concentrations): no inhibition in the concentration range used; decrease in the AS signal ([1]; retest at 10 µM, MN): 30–40%
COc1cccc2c1C(=O)c1c(O)c3c(c(O)c1C2=O)C[C@@](O)(C(=O)CO)C[C@@H]3O[C@H]1C[C@H](N)[C@H](O[C@@H]2CCCCO2)[C@H](C)O1 [Pirarubicin, pirarubicin]	full shift of the nucleosomal DNA in addition to a strong MN dissociation	at least 50%	able to inhibit PFV integration into MNs	IC50 ([1]; increasing drug concentrations): 630 ± 20 nM; effect on the intasome/nucleosome AS signal ([1]; retest at 10 µM, MN): strong inhibitory effect
Cc1c2oc3c(C)ccc(C(=O)N[C@@H]4C(=O)N[C@H](C(C)C)C(=O)N5CCC[C@H]5C(=O)N(C)CC(=O)N(C)[C@@H](C(C)C)C(=O)O[C@@H]4C)c3nc-2c(C(=O)N[C@@H]2C(=O)N[C@H](C(C)C)C(=O)N3CCC[C@H]3C(=O)N(C)CC(=O)N(C)[C@@H](C(C)C)C(=O)O[C@@H]2C)c(N)c1=O [actinomycin D] (I: T[dV]P[Sar][NMeV] / II: T[dV]P[Sar][NMeV]; ester I:1-I:C, II:1-II:C; linker I:N-II:N via Actinocin(9to1))	–	–	–	selection as intasome/nucleosome modulator in the OncoSET screen ([1]; OncoSET screen): lack of effect
N.N.[Cl][Pt][Cl] [cisplatin]	–	–	only a slight inhibition of integration into nucleosome	–
COc1cccc2c1C(=O)c1c(O)c3c(c(O)c1C2=O)C[C@@](O)(C(=O)CO)C[C@@H]3O[C@H]1C[C@H](N)[C@@H](O)[C@H](C)O1 [epirubicin]	–	–	–	selection as intasome/nucleosome modulator in the OncoSET screen ([1]; OncoSET screen): not selected as an intasome/nucleosome modulator; also recorded: inefficient in inhibiting the intasome/nucleosome complex
O=C1CCC(N2C(=O)c3ccccc3C2=O)C(=O)N1 (stereo not drawn) [thalidomide]	–	–	did not show any effect	–
CC[C@@]1(O)C(=O)OCc2c1cc1n(c2=O)Cc2cc3c(CN(C)C)c(O)ccc3nc2-1 [topotecan]	–	–	did not show any effect	–
CCCCC(=O)OCC(=O)[C@]1(O)Cc2c(O)c3c(c(O)c2[C@@H](O[C@H]2C[C@H](NC(=O)C(F)(F)F)[C@H](O)[C@H](C)O2)C1)C(=O)c1c(OC)cccc1C3=O [valrubicin]	–	–	–	selection as intasome/nucleosome modulator in the OncoSET screen ([1]; OncoSET screen): inefficiency
